The values that follow come from patent US20110098269A1, “Substituted Pyridazinone Derivatives as Histamine-3 (H3) Receptor Ligands” (Cephalon, Inc., priority 2008, published 2011).

Data set [1] addresses T1, rat histamine H3 receptor (Rattus norvegicus, UniProt Q9QYN8).
T1 construct: encoding the entire 445-amino-acid rat histamine H3 receptor; expressed in transfected cells
Description: Rat H3 radioligand binding ([3H]-N-alpha-methylhistamine, CHO-A3 cell membranes). Particulars: Rat H3 binding constant, class symbols; read-out: rH3 Ki. An excerpt: Cell line development and membrane preparation. The rat H3 receptor cDNA was PCR amplified from reverse-transcribed RNA pooled from rat thalamus, hypothalamus, striatum and prefrontal cortex with a sequence corresponding to by #338-1672 of Genbank file #NM_053506, encoding the entire 445-amino-acid rat histamine H3 receptor. This was engineered into the pIRES-neo3 mammalian expression vector, which was stably transfected into the CHO-A3 cell line (Euroscreen, Belgium), followed by clonal selection by limiting dilution. Cells were harvested and cell pellets were frozen (−80° C.). Cell pellets were resuspended in 5 mM Tris-HCl, pH 7.5 with 5 nM EDTA and a cocktail of protease inhibitors (Complete Protease Inhibitor Tablets, Roche Diagnostics). Cells were disrupted using a polytron cell homogenizer and the suspension was centrifuged at 1000×g for 10 minutes at 4° C. The pellet was discarded and the supernatant centrifuged at 40,000×g for 30 min at 4° C. This membrane pellet was washed in membrane buffer containing 50 mM Tris-HCl, pH 7.5 with 0.6 mM EDTA, 5 mM MgCl2 and protease inhibitors, recentrifuged as above and the final pellet resuspended in membrane buffer plus 250 mM sucrose and frozen at −80° C.
(§1) Radioligand Binding. Membranes were resuspended in 50 mM Tris HCl (pH 7.4), 5 mM MgCl2, 0.1% BSA. The membrane suspensions (10 μg protein per well) were incubated in a 96 well microtiter plate with [^3H]-N-alpha-methylhistamine (approximately 1 nM final concentration), test compounds at various concentrations (0.01 nM-30 μM) and scintillation proximity beads (Perkin Elmer, FlashBlueGPCR Scintillating Beads) in a final volume of 80 μl for 4 hours at room temperature, protected from light. Non-specific binding was determined in the presence of 10 μM clobenpropit. Radioligand bound to receptor, and therefore in proximity to the scintillation beads, was measured using a MicroBeta scintillation counter.

The target of another data set is T2, human H3 receptor (Homo sapiens, UniProt Q9Y5N1).
T2 construct: expressed in transfected cells
Description: Human H3 radioligand binding ([3H]-N-alpha-methylhistamine, CHO cell membranes). The settings on record: Human H3 binding constant, class symbols; read-out: hH3 Ki. As to the method: Methods: CHO cells stably expressing the human H3 receptor (GenBank: NM_007232) were harvested and cell pellets were frozen (−80° C.). Cell pellets were resuspended in 5 mM Tris-HCl, pH 7.5 with 5 nM EDTA and a cocktail of protease inhibitors (Complete Protease Inhibitor Tablets, Roche Diagnostics). Cells were disrupted using a polytron cell homogenizer and the suspension was centrifuged at 1000×g for 10 minutes at 4° C. The pellet was discarded and the supernatant centrifuged at 40,000×g for 30 min at 4° C. This membrane pellet was washed in membrane buffer containing 50 mM Tris-HCl, pH 7.5 with 0.6 mM EDTA, 5 mM MgCl2 and protease inhibitors, recentrifuged as above and the final pellet resuspended in membrane buffer plus 250 mM sucrose and frozen at −80° C.
as §1

T1 sequence (Q9QYN8 whole entry): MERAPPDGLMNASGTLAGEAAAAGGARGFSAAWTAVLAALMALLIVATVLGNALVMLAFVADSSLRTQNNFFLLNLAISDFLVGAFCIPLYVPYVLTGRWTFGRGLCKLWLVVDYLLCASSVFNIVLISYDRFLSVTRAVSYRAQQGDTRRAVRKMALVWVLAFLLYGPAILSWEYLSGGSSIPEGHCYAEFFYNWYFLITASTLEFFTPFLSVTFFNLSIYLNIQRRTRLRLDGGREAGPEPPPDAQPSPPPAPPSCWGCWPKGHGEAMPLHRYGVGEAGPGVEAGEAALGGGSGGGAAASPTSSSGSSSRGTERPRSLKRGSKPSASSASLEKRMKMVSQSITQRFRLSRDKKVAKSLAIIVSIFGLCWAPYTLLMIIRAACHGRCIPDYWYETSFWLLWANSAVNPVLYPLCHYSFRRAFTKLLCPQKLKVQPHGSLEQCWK
T2 sequence (Q9Y5N1 whole entry): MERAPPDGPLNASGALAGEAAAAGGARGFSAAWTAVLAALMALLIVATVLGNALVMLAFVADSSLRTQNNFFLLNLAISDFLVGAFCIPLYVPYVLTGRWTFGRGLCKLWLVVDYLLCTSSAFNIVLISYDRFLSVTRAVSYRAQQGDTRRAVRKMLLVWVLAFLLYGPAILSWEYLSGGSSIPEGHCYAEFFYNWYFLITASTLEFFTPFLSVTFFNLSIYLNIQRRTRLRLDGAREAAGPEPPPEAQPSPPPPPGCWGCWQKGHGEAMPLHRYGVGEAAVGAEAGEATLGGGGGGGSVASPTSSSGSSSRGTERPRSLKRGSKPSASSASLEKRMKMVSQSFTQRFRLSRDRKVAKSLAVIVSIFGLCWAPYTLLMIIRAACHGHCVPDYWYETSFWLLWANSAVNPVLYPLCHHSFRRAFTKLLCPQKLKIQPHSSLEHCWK

Usually melting point stands for the temperature, or range, at which the solid turns liquid. Broadly, the Ki is a dissociation constant, usually derived from enzyme kinetics or from competition with a known ligand. On to `Cn1nc(-c2ccc3c(c2)CCN(C2CCC2)CC3)ccc1=O` [Example 21, 6-(3-Cyclobutyl-2,3,4,5-tetrahydro-1H-benzo[d]azepin-7-yl)-2-methyl-2H-pyridazin-3-one], for which the melting point was 287 to 288 °C. The Ki in data set [1] is less than 100 nM. Besides, at human H3 receptor, the Ki was less than 100 nM.
For `CS(=O)(=O)c1ccc(-n2nc(-c3ccc4c(c3)CCN(C3CCC3)CC4)ccc2=O)cc1` [Example 25, 6-(3-Cyclobutyl-2,3,4,5-tetrahydro-1H-benzo[d]azepin-7-yl)-2-(4-methanesulfonyl-phenyl)-2H-pyridazin-3-one], the melting point was 225 °C. Further, in data set [1], the inhibitory constant (Ki) fell in the range of 100 to 1000 nM. Besides, the Ki on human H3 receptor is less than 100 nM.
On the same counts, the results for `Cn1nc(-c2ccc(Oc3ccc4c(c3)CCN(C3CCC3)CC4)nc2)ccc1=O` [Example 26, 6-[6-(3-Cyclobutyl-2,3,4,5-tetrahydro-1H-benzo[d]azepin-7-yloxy)-pyridin-3-yl]-2-methyl-2H-pyridazin-3-one] are 134 to 137 °C, less than 100 nM and less than 100 nM.
In turn, `O=c1ccc(-c2ccc(Oc3ccc4c(c3)CCN(C3CCC3)CC4)nc2)n[nH]1` [Example 27, 6-[6-(3-Cyclobutyl-2,3,4,5-tetrahydro-1H-benzo[d]azepin-7-yloxy)-pyridin-3-yl]-2H-pyridazin-3-one] showed a melting point of 215 to 220 °C. In data set [1], the Ki is less than 100 nM. In addition, the Ki on human H3 receptor is less than 100 nM.
With `O=c1ccc(-c2ccc(Oc3ccc4c(c3)CCN(C3CCC3)CC4)nc2)nn1-c1ccccn1` [Example 28, 6-[6-(3-Cyclobutyl-2,3,4,5-tetrahydro-1H-benzo[d]azepin-7-yloxy)-pyridin-3-yl]-2-pyridin-2-yl-2H-pyridazin-3-one], the melting point was 178 to 182 °C. Also, the Ki in data set [1] is less than 100 nM. Moreover, the Ki at human H3 receptor is less than 100 nM.
Molecule `CC(C)n1nc(-c2ccc(Oc3ccc4c(c3)CCN(C3CCC3)CC4)nc2)ccc1=O` [Example 29, 6-[6-(3-Cyclobutyl-2,3,4,5-tetrahydro-1H-benzo[d]azepin-7-yloxy)-pyridin-3-yl]-2-isopropyl-2H-pyridazin-3-one] registered a melting point of 70 to 73 °C. Also, the Ki in data set [1] is less than 100 nM. Moreover, the Ki on human H3 receptor is less than 100 nM.
In the case of `O=C1NN=C(c2ccc3c(c2)CCN(C2CCC2)CC3)C2CCCC12` (stereo not drawn) [Example 42, 4-(3-Cyclobutyl-2,3,4,5-tetrahydro-1H-benzo[d]azepin-7-yl)-2,4a,5,6,7,7a-hexahydro-cyclopenta[d]pyridazin-1-one], the melting point fell in the range of 198 to 201 °C. The Ki in data set [1] is less than 100 nM. On human H3 receptor, the Ki is less than 100 nM.
The molecule `O=C1NN=C(c2ccc3c(c2)CCN(C2CCC2)CC3)C2CCCCC12` (stereo not drawn) [Example 44, 4-(3-Cyclobutyl-2,3,4,5-tetrahydro-1H-benzo[d]azepin-7-yl)-4-a,5,6,7,8,8a-hexahydro-2H-phthalazin-1-one] came in with a melting point of 223 to 225 °C. For the same molecule, in data set [1], the inhibitory constant (Ki) is less than 100 nM. Also, the Ki on human H3 receptor was less than 100 nM.
Molecule `Cn1nc(-c2ccc(C(=O)N3CCN(C4CCCC4)CC3)cc2)ccc1=O` [Example 46, 6-[4-(4-Cyclopentyl-piperazine-1-carbonyl)-phenyl]-2-methyl-2H-pyridazin-3-one] gave a melting point of 177 to 179 °C. Besides, in data set [1], the Ki is 100 to 1000 nM. On human H3 receptor, the Ki lay within 100 to 1000 nM.
`CC(C)N1CCN(C(=O)c2ccc(-c3ccc(=O)n(C)n3)cc2)CC1` [Example 47, 6-[4-(4-Isopropyl-piperazine-1-carbonyl)-phenyl]-2-methyl-2H-pyridazin-3-one]: the melting point is 131 to 132 °C. Moreover, the inhibition constant Ki in data set [1] is 100 to 1000 nM. Also, the Ki on human H3 receptor was 100 to 1000 nM.
Turning to `O=C(c1ccc(-c2ccc(=O)[nH]n2)cc1)N1CCC[C@H]1CN1CCCC1` [Example 50, 6-[4-((S)-2-Pyrrolidin-1-ylmethyl-pyrrolidine-1-carbonyl)-phenyl]-2H-pyridazin-3-one], the melting point is 62 to 66 °C. For the same molecule, the Ki in data set [1] was less than 100 nM. Also, the inhibition constant Ki at human H3 receptor is less than 100 nM.
On to `C[C@@H]1CCCN1CCc1ccc(-c2ccc(=O)[nH]n2)cc1` [Example 51, 6-{4-[2-((R)-2-Methyl-pyrrolidin-1-yl)-ethyl]-phenyl}-2H-pyridazin-3-one], for which the melting point was 159 to 161 °C. For the same molecule, the Ki in data set [1] is less than 100 nM. For the same molecule, the Ki on human H3 receptor was less than 100 nM.
